# Measured values published in PMC11990524, “Design and Synthesis of Novel 6-(Substituted phenyl)-[1,3]dioxolo[4′,5′:4,5]benzo[1,2-d]thiazole Compounds as Tyrosinase Inhibitors: In Vitro and In Vivo Insights” (Molecules, 2025).
# Columns and labels:
# B16F10 cell tyrosinase = molecular target: T1, B16F10 cell tyrosinase (Mus musculus, UniProt P11344); assay: In situ cellular tyrosinase activity assay using B16F10 cells; assay type: cell-based, murine
# T1 construct: endogenous in cells; host or cells: B16F10 murine cells, stimulated with α-MSH and IBMX
# T1 sequence (P11344 19-533): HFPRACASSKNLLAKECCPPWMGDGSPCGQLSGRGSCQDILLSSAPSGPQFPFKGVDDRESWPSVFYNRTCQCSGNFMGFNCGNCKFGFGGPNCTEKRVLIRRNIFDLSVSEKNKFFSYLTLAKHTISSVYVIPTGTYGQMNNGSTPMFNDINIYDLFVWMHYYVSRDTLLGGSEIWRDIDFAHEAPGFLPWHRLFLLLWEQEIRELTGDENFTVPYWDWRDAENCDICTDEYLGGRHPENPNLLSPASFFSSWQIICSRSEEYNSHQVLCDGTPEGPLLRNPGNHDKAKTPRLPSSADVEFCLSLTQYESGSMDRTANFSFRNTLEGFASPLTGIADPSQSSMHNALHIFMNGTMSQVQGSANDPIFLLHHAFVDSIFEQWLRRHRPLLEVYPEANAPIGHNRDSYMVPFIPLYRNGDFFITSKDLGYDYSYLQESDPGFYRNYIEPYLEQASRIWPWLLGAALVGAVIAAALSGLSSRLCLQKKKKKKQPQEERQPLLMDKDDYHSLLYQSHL
# Protocol: After 72 h of incubation, the cells were treated with an excessive amount of L-dopa for 2 h, and then the melanin-stained cells were photographed, and the pigmented areas of the cells were determined using an ATTO CS Analyzer (ATTO, Tokyo, Japan).
# B16F10 (3 × 10^3 cells/well) cells in a 24-well plate were incubated for 24 h in a 5% CO2 incubator maintained at 37 °C. […] Stimulators (α-MSH and IBMX; 1 μM and 200 μM, respectively) were exposed to cells 1 h after treatment with the test sample, and the cells were incubated for 72 h in a 5% CO2 incubator. The cells were fixed for 40 min using paraformaldehyde solution (4%) (Sigma-Aldrich, St. Louis, MO, USA), washed with PBS (pH 7.4), and permeabilized for 2 min using Triton X-100 (0.1%). After washing twice with PBS, each well was exposed to L-dopa solution (500 μL; 2 mM). After incubation for 2 h, images of the cells stained with excess melanin were obtained using a camera connected to a microscope (Motic, Hong Kong).
# mushroom tyrosinase [1] = molecular target: T2, mushroom tyrosinase (Agaricus bisporus, UniProt C7FF04); assay: Kinetic analysis of mushroom tyrosinase (Lineweaver–Burk and Dixon plots); assay type: biochemical; parameters: purchased Sigma-Aldrich; settings: substrate L-dopa
# Protocol: Therefore, the mechanism of inhibition was investigated using mushroom tyrosinase. At various concentrations of L-dopa, the initial dopachrome production rate was investigated at four different concentrations of 5 (0, 20, 40, and 80 μM) and 9 (0, 0.5, 1.0, and 2.0 μM).
# The Lineweaver–Burk plot for each compound was re-plotted by plotting the reciprocal of the initial dopachrome production rate vs. the […] to create a Dixon plot for each compound (Figure 3C,D for compounds 5 and 9, respectively). […] The absolute value of the x-coordinate of the merged point represents the inhibition constant (Ki), which indicates the potency of the inhibitor.
# Kinetic analysis of mushroom tyrosinase was performed by recording the initial dopachrome formation rate in the presence of compounds 5 and 9. […] The optical density of dopachrome production in each well was recorded at 475 nm at 5 min intervals for 30 min. Compounds were tested at 80, 40, 20, and 0 μM for 5 and at 2, 1.0, 0.5, and 0 μM for 9, respectively. Potting the inverse of the substrate concentration vs. the reciprocal of the initial dopachrome production rate generated Lineweaver–Burk plots.
# Target sequence in this assay (C7FF04 1-392): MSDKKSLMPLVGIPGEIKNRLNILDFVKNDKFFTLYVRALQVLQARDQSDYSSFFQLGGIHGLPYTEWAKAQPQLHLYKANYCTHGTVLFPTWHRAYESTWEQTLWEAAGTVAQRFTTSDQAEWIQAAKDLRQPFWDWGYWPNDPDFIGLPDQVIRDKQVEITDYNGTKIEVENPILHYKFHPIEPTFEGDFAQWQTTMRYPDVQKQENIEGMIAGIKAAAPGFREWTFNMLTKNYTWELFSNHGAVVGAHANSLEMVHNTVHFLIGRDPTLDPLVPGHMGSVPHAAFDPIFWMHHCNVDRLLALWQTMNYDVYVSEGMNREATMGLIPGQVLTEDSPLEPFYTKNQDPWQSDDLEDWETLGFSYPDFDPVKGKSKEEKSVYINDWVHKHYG
# mushroom tyrosinase [2] = molecular target: T2, mushroom tyrosinase; assay: Mushroom tyrosinase inhibitory activity assay (L-dopa or L-tyrosine as substrate); assay type: biochemical
# Protocol: In the inhibition experiments, L-dopa and L-tyrosine were used as enzyme substrates.
# The plate was incubated at 37 °C for 30 min, and absorbance of dopachrome formation was recorded spectrophotometrically at 475 nm using a VersaMax® Elisa (VE) microplate reader (Molecular Devices, San Jose, CA, USA) to determine tyrosinase inhibition activity. A VE microplate reader was used in all subsequent experiments to measure optical density. All experiments were carried out independently three times.
# Target sequence in this assay (C7FF04 2-392): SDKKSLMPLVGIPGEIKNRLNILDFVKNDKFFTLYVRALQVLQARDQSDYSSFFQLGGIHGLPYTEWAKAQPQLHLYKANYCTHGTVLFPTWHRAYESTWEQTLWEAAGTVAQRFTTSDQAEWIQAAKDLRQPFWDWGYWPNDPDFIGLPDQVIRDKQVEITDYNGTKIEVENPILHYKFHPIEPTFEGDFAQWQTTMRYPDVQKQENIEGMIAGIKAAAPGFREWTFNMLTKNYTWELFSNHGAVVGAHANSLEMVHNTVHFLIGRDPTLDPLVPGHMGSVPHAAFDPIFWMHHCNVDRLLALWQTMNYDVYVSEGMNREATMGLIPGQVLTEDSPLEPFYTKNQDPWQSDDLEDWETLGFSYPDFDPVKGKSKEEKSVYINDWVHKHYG
smiles,measurement,setting,value
"Oc1ccc(-c2nc3cc4c(cc3s2)OCO4)c(O)c1 [Compound 9, 4-([1,3]Dioxolo[4′,5′:4,5]benzo[1,2-d]thiazol-6-yl)benzene-1,3-diol]","melanin production-inhibitory potency in situ, comparison",B16F10 cell tyrosinase; 5 μM,greater than that of 5
same,number of cells strongly stained with melanin (in situ tyrosinase),"B16F10 cell tyrosinase; 1, 2, and 5 μM, IBMX plus α-MSH, 72 h, L-dopa 2 h",evidently reduced the number of cells strongly stained with melanin
same,Ki,"mushroom tyrosinase [1]; Dixon plot, read-out: inhibition constant (Ki)",380 nM
same,mechanism of inhibition,mushroom tyrosinase [1]; Lineweaver–Burk plot,competitive inhibitors
same,IC50 values regardless of the substrate used (in words),mushroom tyrosinase [2]; L-dopa and L-tyrosine,nanomolar
same,inhibition at 2 µM,"mushroom tyrosinase [2]; substrate L-dopa, 2.0 μM, read-out: Inhibition (%) measured at 2.0 μM (converted)",76.1%
same,inhibition at 0.4 µM,"mushroom tyrosinase [2]; substrate L-tyrosine, 0.4 μM, read-out: Inhibition (%) measured at 0.4 μM (converted)",71.8%
